Results taken from US10619209B2, “Serotonin transporter gene and treatment of opioid-related disorders” (University of Virginia Patent Foundation, priority 2008, dated 2020).
Counter-ions that a name gives are not always drawn.

Tests used:
[1] = alcohol trials; 50 mg/day; cited from earlier work
[2] = cited from earlier work
[3] = system: alcohol-dependent men and women; experiment: 12-week treatment trial of ondansetron by 5'-HTTLPR and rs1042173 genotype (Example 4); format: in vivo, human
Method: 289 alcohol-dependent men and women enrolled in a 12-week treatment trial in which they received either ondansetron (4 μg/kg) or placebo. All subjects also received weekly cognitive behavioral therapy as their standardized psychosocial treatment. Genotyping was conducted on all subjects. Mixed-effects models were used to study the effect of treatment and genotype and their interaction for each of the primary drinking outcomes. The models included random intercept and random slope and were adjusted for covariates such as participants' average 90-day drinking levels prior to the study, age, gender, ethnicity (Caucasian and Hispanic), and center. A variance-components covariance matrix was used to model different variances for the intercept and slope and a covariance between them. Interactions of treatment, genotype, age, and center were first included in the models. They were excluded from the final models if not significant.

[4] = system: alcohol-dependent individuals; experiment: 12-week randomized controlled pharmacotherapy trial of ondansetron by 5'-HTTLPR genotype (Example 3); format: in vivo, human; details: for mean (SEM) DDD reduction from baseline across the treatment period: ondansetron 4 μg/kg b.i.d., 12 weeks
Excerpt: In a pre-planned interim analysis, data were examined for the 226 alcohol-dependent individuals (aged 18-65 years) enrolled into the 12-week randomized controlled pharmacotherapy trial to determine the effect of ondansetron on drinking among individuals who varied on allelic difference at the 5-HTT gene and age of alcoholism onset. All these individuals were enrolled at the University of Texas Health Science Center at San Antonio. Briefly, the study design was 2 (LL vs. LS/SS)×2 (early onset vs. late onset)×2 (ondansetron 4 μg/kg b.i.d. vs. placebo). The inferential results below are for the severity of drinking—drinks/drinking day (DDD).
Demographic data were that: 74% were male and 26% female; 48% were early-onset alcoholics and 52% late-onset alcoholics, and 20% were Hispanic and 80% White. There were no significant differences (P>0.05) on demographics between the treatment groups. Baseline mean (SD) DDD (past 90 days) were also similar for the ondansetron 4 μg/kg b.i.d. and placebo groups—9.83 (4.63) vs. 9.85 (4.49), respectively. The inferential analyses were conducted on all randomized subjects according to the intent-to-treat principle. The analytic plan was first to calculate the DDD in each week. We then used the difference between weekly DDD and the baseline DDD (in the past 90 days) as repeat measures. A mixed-model approach (SAS PROC MIXED) was used to study the effect of treatment, genotype (LL vs. LS/SS), treatment and genotype interaction, age, age of onset (early vs. late), gender, and age at onset of problem drinking, adjusting for the baseline DDD level. Also included is a random slope for time to study the variation in the time trend of the weekly DDD.

[5] = placebo vs. treatment, LL genotype
[6] = placebo vs. treatment, LS/SS genotype
[7] = treatment (ondansetron) group, LS/SS vs. LL

## O=C1CC[C@@]2(O)[C@H]3Cc4ccc(O)c5c4[C@@]2(CCN3CC2CC2)[C@H]1O5 [naltrexone, 17-(Cyclopropylmethyl)-4,5a-epoxy-3,14-dihydroxymorphinan-6-one hydrochloride]
[1]
  individuals unable to tolerate the dose: about 15%

## CC1(C)O[C@@H]2[C@@H](CO[C@@]3(COS(N)(=O)=O)OC(C)(C)O[C@@H]23)O1 [topiramate, 2,3:4,5-Bis-O-(1-methylethylidene)-beta-D-fructopyranose sulfamate]
[2]; general population
  individuals reporting cognitive impairment: 2.4%
[2]; substance abuse field
  occurrence rate of cognitive impairment: about 18.7%

## Cc1nccn1CC1CCc2c(c3ccccc3n2C)C1=O (centres unmarked) [ondansetron, 9-methyl-3-[(2-methyl-1H-imidazol-1-yl)methyl]-1,2,3,9-tetrahydrocarbazol-4-one]
[3]; LL genotype, treatment group vs placebo group
  mean difference in DDD: −1.50 DDD
[3]; treated with ondansetron 4 μg/kg, LL vs LS/SS genotype
  mean difference in DDD: −1.41 DDD
[3]; treated with ondansetron 4 μg/kg, TT vs TG/GG genotype of rs1042173
  mean difference in DDD: −1.31 DDD
[4]; LL genotype
  mean (SEM) DDD reduction from baseline across the treatment period: 5.70 (0.64) DDD
[4]; LS/SS genotype
  mean (SEM) DDD reduction from baseline across the treatment period: 3.45 (0.44) DDD
[4]; [5]
  Cohen's d: 0.08
  Estimate (cell contrast on DDD): 2.16 DDD
[4]; [6]
  Cohen's d: 0.04
  Estimate (cell contrast on DDD): −0.80 DDD
[4]; [7]
  Cohen's d: 0.10
  Estimate (cell contrast on DDD): 2.25 DDD
